Experimental findings from paper PMC5218480 (PLoS ONE, 2017) are described below.

This test has as its system MV-4-11 cells. Nature of the test: Gene expression microarray analysis (Affymetrix PrimeView) and GSEA. The test is classed as cell-based, human. The arrangement: RFU PODN (11730768_x_at) / Fold change /veh PODN (11730768_x_at) / RFU LINC00158 (11744669_a_at) / Fold change /veh LINC00158 (11744669_a_at) / RFU DUSP10 (11751237_a_at) / Fold change /veh DUSP10 (11751237_a_at) / RFU ID3 (11757404_x_at) / Fold change /veh ID3 (11757404_x_at) / RFU PLEKHG5 (11737974_s_at) / Fold change /veh PLEKHG5 (11737974_s_at) / RFU LRRC4B (11730491_at) / Fold change /veh LRRC4B (11730491_at) / RFU GIMAP4 (11747438_a_at) / Fold change /veh GIMAP4 (11747438_a_at) / RFU KRT8 (11758183_x_at) / Fold change /veh KRT8 (11758183_x_at) / RFU CNN1 (11734310_a_at) / Fold change /veh CNN1 (11734310_a_at) / RFU VPS37D (11726825_at) / Fold change /veh VPS37D (11726825_at) / RFU C10orf10 (11716522_x_at) / Fold change /veh C10orf10 (11716522_x_at) / RFU KIR2DL2 /// KIR2DL4 /// KIR2DL5A /// KIR2DL5B /// KIR2DS1 /// KIR2DS2 /// KIR2DS3 /// KIR2DS4 /// KIR3DL3 /// KIR3DL3 /// KIR3DS1 (11738374_at) / Fold change /veh KIR2DL2 /// KIR2DL4 /// KIR2DL5A /// KIR2DL5B /// KIR2DS1 /// KIR2DS2 /// KIR2DS3 /// KIR2DS4 /// KIR3DL3 /// KIR3DL3 /// KIR3DS1 (11738374_at) / RFU C1QL1 (11718748_at) / Fold change /veh C1QL1 (11718748_at) / RFU TMPRSS4 (11747572_a_at) / Fold change /veh TMPRSS4 (11747572_a_at) / RFU HAMP (11756126_x_at) / Fold change /veh HAMP (11756126_x_at) / RFU RNFT2 (11725882_a_at) / Fold change /veh RNFT2 (11725882_a_at) / RFU NR4A2 (11747474_a_at) / Fold change /veh NR4A2 (11747474_a_at) / RFU ABCC12 (11746883_a_at) / Fold change /veh ABCC12 (11746883_a_at) / RFU TMEM136 (11760407_x_at) / Fold change /veh TMEM136 (11760407_x_at) / RFU CLDN22 /// WWC2 (11732394_at) / Fold change /veh CLDN22 /// WWC2 (11732394_at) / RFU HLA-DPB1 (11760878_x_at) / Fold change /veh HLA-DPB1 (11760878_x_at) / RFU SPINT1 (11716480_a_at) / Fold change /veh SPINT1 (11716480_a_at) / RFU GAP43 (11754022_s_at) / Fold change /veh GAP43 (11754022_s_at) / RFU A4GNT (11735810_at) / Fold change /veh A4GNT (11735810_at) / RFU PRB3 (11715151_x_at) / Fold change /veh PRB3 (11715151_x_at) / RFU TUBB4B (11761932_at) / Fold change /veh TUBB4B (11761932_at) / RFU CAPN14 (11732068_a_at) / Fold change /veh CAPN14 (11732068_a_at) / RFU TMCC2 (11721928_a_at) / Fold change /veh TMCC2 (11721928_a_at) / RFU IRGQ (11745062_a_at) / Fold change /veh IRGQ (11745062_a_at) / RFU FAM174B (11720279_a_at) / Fold change /veh FAM174B (11720279_a_at) / RFU TMPRSS4 (11748680_a_at) / Fold change /veh TMPRSS4 (11748680_a_at) / RFU FAM212B (11763350_a_at) / Fold change /veh FAM212B (11763350_a_at) / RFU PLEKHG5 (11743358_a_at) / Fold change /veh PLEKHG5 (11743358_a_at) / RFU ZSCAN30 (11745921_a_at) / Fold change /veh ZSCAN30 (11745921_a_at) / RFU CMKLR1 (11741424_a_at) / Fold change /veh CMKLR1 (11741424_a_at) / RFU LOC101060620 /// MAPK8IP1 (11723275_at) / Fold change /veh LOC101060620 /// MAPK8IP1 (11723275_at) / RFU SPTSSB (11747773_x_at) / Fold change /veh SPTSSB (11747773_x_at) / RFU PRSS12 (11739890_at) / Fold change /veh PRSS12 (11739890_at) / RFU BIN1 (11741810_x_at) / Fold change /veh BIN1 (11741810_x_at) / RFU WNT11 (11732464_a_at) / Fold change /veh WNT11 (11732464_a_at) / RFU C10orf10 (11716521_a_at) / Fold change /veh C10orf10 (11716521_a_at) / RFU C5orf56 (11738089_at) / Fold change /veh C5orf56 (11738089_at) / RFU CYB561 (11721691_x_at) / Fold change /veh CYB561 (11721691_x_at) / RFU ANKRD19P (11752326_a_at) / Fold change /veh ANKRD19P (11752326_a_at) / RFU OR2T12 /// OR2T33 /// OR2T8 (11738714_s_at) / Fold change /veh OR2T12 /// OR2T33 /// OR2T8 (11738714_s_at) / RFU VCAN (11748164_a_at) / Fold change /veh VCAN (11748164_a_at) / RFU JSRP1 (11732532_at) / Fold change /veh JSRP1 (11732532_at) / RFU KRTAP10-11 (11738290_x_at) / Fold change /veh KRTAP10-11 (11738290_x_at) / RFU MYO3A (11730013_a_at) / Fold change /veh MYO3A (11730013_a_at) / RFU EBF3 (11725865_a_at) / Fold change /veh EBF3 (11725865_a_at) / RFU CAMK2N1 (11719241_x_at) / Fold change /veh CAMK2N1 (11719241_x_at) / RFU C5orf56 (11738088_a_at) / Fold change /veh C5orf56 (11738088_a_at) / RFU OLFML3 (11715873_a_at) / Fold change /veh OLFML3 (11715873_a_at) / RFU LOC100653217 /// NTM (11731650_a_at) / Fold change /veh LOC100653217 /// NTM (11731650_a_at) / RFU MAPK11 (11762145_a_at) / Fold change /veh MAPK11 (11762145_a_at) / RFU FIZ1 (11724087_x_at) / Fold change /veh FIZ1 (11724087_x_at) / RFU OASL (11726364_x_at) / Fold change /veh OASL (11726364_x_at) / RFU SOX15 (11748057_x_at) / Fold change /veh SOX15 (11748057_x_at) / RFU CD79A (11719716_a_at) / Fold change /veh CD79A (11719716_a_at) / RFU HIST1H1D (11736915_at) / Fold change /veh HIST1H1D (11736915_at) / RFU CASKIN2 (11723855_a_at) / Fold change /veh CASKIN2 (11723855_a_at) / RFU LOC730098 (11760151_x_at) / Fold change /veh LOC730098 (11760151_x_at) / RFU OR4N2 (11742367_at) / Fold change /veh OR4N2 (11742367_at) / RFU PRRT2 (11749266_a_at) / Fold change /veh PRRT2 (11749266_a_at) / RFU SNX32 (11753110_a_at) / Fold change /veh SNX32 (11753110_a_at) / RFU CDHR5 (11726645_a_at) / Fold change /veh CDHR5 (11726645_a_at) / RFU RCAN1 (11760418_a_at) / Fold change /veh RCAN1 (11760418_a_at) / RFU FAM167A (11723789_a_at) / Fold change /veh FAM167A (11723789_a_at) / RFU FAM26E (11764081_at) / Fold change /veh FAM26E (11764081_at) / RFU ISYNA1 (11749810_s_at) / Fold change /veh ISYNA1 (11749810_s_at) / RFU ACY1 (11761880_at) / Fold change /veh ACY1 (11761880_at) / RFU 11764098_at / Fold change /veh 11764098_at / RFU SAMD14 (11745864_x_at) / Fold change /veh SAMD14 (11745864_x_at) / RFU NPB (11741838_a_at) / Fold change /veh NPB (11741838_a_at) / RFU TMPRSS6 (11731388_a_at) / Fold change /veh TMPRSS6 (11731388_a_at) / RFU KRTAP10-2 (11738614_at) / Fold change /veh KRTAP10-2 (11738614_at) / RFU ARHGAP8 /// PRR5-ARHGAP8 (11727945_x_at) / Fold change /veh ARHGAP8 /// PRR5-ARHGAP8 (11727945_x_at) / RFU KRTAP5-7 /// NADSYN1 (11734609_at) / Fold change /veh KRTAP5-7 /// NADSYN1 (11734609_at) / RFU RASL12 (11751679_a_at) / Fold change /veh RASL12 (11751679_a_at) / RFU CDKN2B (11736163_a_at) / Fold change /veh CDKN2B (11736163_a_at) / RFU PRF1 (11729649_at) / Fold change /veh PRF1 (11729649_at) / RFU, ZNF638 /// ZNF638-IT1 / Fold change vs veh, ZNF638 /// ZNF638-IT1 / RFU, PANK3 / Fold change vs veh, PANK3 / RFU, SH3YL1 / Fold change vs veh, SH3YL1 / RFU, ZEB2 / Fold change vs veh, ZEB2 / RFU, NRIP1 / Fold change vs veh, NRIP1 / RFU, PTTG1IP / Fold change vs veh, PTTG1IP / RFU, CAPN2 / Fold change vs veh, CAPN2 / RFU, MED14 / Fold change vs veh, MED14 / RFU, SNORA58 / Fold change vs veh, SNORA58 / RFU, C1orf63 / Fold change vs veh, C1orf63 / RFU, LRRFIP1 / Fold change vs veh, LRRFIP1 / RFU, NDUFAF7 / Fold change vs veh, NDUFAF7 / RFU, SLC12A2 / Fold change vs veh, SLC12A2 / RFU, IBTK / Fold change vs veh, IBTK / RFU, ESF1 / Fold change vs veh, ESF1 / Fold change vs veh, TMEM50B / RFU, TAOK1 / Fold change vs veh, TAOK1 / RFU, ACBD3 / Fold change vs veh, ACBD3 / RFU, TMA16 / Fold change vs veh, TMA16 / RFU, RWDD3 / Fold change vs veh, RWDD3 / RFU, BCAT1 / Fold change vs veh, BCAT1 / RFU, EDEM3 / Fold change vs veh, EDEM3 / RFU, TMEM33 / Fold change vs veh, TMEM33 / RFU, WDR75 / Fold change vs veh, WDR75 / RFU, AHCTF1 / Fold change vs veh, AHCTF1 / RFU, TFRC / Fold change vs veh, TFRC / RFU, ZDHHC17 / Fold change vs veh, ZDHHC17 / RFU, NOM1 / Fold change vs veh, NOM1 / RFU, ARL8B / Fold change vs veh, ARL8B / RFU, ZBTB11 / Fold change vs veh, ZBTB11 / RFU, TAMM41 / Fold change vs veh, TAMM41 / RFU, KIAA1704 /// LOC100996395 / Fold change vs veh, KIAA1704 /// LOC100996395 / RFU, ING1 / Fold change vs veh, ING1 / RFU, TRMT61B / Fold change vs veh, TRMT61B / RFU, FUBP3 / Fold change vs veh, FUBP3 / RFU, TP53 / Fold change vs veh, TP53 / RFU, TNKS2 / Fold change vs veh, TNKS2 / RFU, ZFP14 / Fold change vs veh, ZFP14 / RFU, ACTR2 / Fold change vs veh, ACTR2 / RFU, PPP3R1 / Fold change vs veh, PPP3R1 / RFU, PIK3R1 / Fold change vs veh, PIK3R1 / RFU, HNRNPA1 / Fold change vs veh, HNRNPA1 / RFU, RNF170 / Fold change vs veh, RNF170 / RFU, ZNF28 / Fold change vs veh, ZNF28 / RFU, RNGTT / Fold change vs veh, RNGTT / RFU, OGT / Fold change vs veh, OGT / RFU, BRD1 / Fold change vs veh, BRD1 / RFU, MARS / Fold change vs veh, MARS / RFU, ZNF655 / Fold change vs veh, ZNF655 / RFU, FAHD1 / Fold change vs veh, FAHD1 / RFU, BDP1 / Fold change vs veh, BDP1 / RFU, LRRCC1 / Fold change vs veh, LRRCC1 / RFU, ARID1A / Fold change vs veh, ARID1A / RFU, ZNF146 / Fold change vs veh, ZNF146 / RFU, ZNF330 / Fold change vs veh, ZNF330 / RFU, GPN3 / Fold change vs veh, GPN3 / RFU, C9orf123 / Fold change vs veh, C9orf123 / RFU, N4BP2L2 / Fold change vs veh, N4BP2L2 / RFU, ARFIP1 / Fold change vs veh, ARFIP1 / RFU, FAM179B / Fold change vs veh, FAM179B / RFU, BCL10 / Fold change vs veh, BCL10 / RFU, UHRF1BP1L / Fold change vs veh, UHRF1BP1L / RFU, BET1 / Fold change vs veh, BET1 / RFU, CNOT2 / Fold change vs veh, CNOT2 / RFU, ZNF268 / Fold change vs veh, ZNF268 / Fold change vs veh, ZNF507 / RFU, DGCR2 / Fold change vs veh, DGCR2 / RFU, WDSUB1 / Fold change vs veh, WDSUB1 / Fold change vs veh, HSP90B1 /// MIR3652 / RFU, ADSS / Fold change vs veh, ADSS / RFU, GK / Fold change vs veh, GK / RFU, ZNF148 / Fold change vs veh, ZNF148 / RFU, TAF9 / Fold change vs veh, TAF9 / RFU, SLC1A5 / Fold change vs veh, SLC1A5 / RFU, SLMO2 / Fold change vs veh, SLMO2 / RFU, ABCC4 / Fold change vs veh, ABCC4 / RFU, LOC101060439 /// RAP1B / Fold change vs veh, LOC101060439 /// RAP1B / RFU, RFX7 / Fold change vs veh, RFX7 / RFU, GTPBP10 / Fold change vs veh, GTPBP10 / RFU, CNEP1R1 / Fold change vs veh, CNEP1R1 / RFU, BIVM-ERCC5 /// ERCC5 / Fold change vs veh, BIVM-ERCC5 /// ERCC5 / RFU, ILF3 / Fold change vs veh, ILF3 / RFU 11762660_at / Fold change /veh 11762660_at / RFU VCAN (11757783_s_at) / Fold change /veh VCAN (11757783_s_at) / RFU DDX43 (11728927_at) / Fold change /veh DDX43 (11728927_at) / RFU KRT8 (11758188_x_at) / Fold change /veh KRT8 (11758188_x_at) / RFU NKD1 (11759106_at) / Fold change /veh NKD1 (11759106_at) / RFU SRD5A1 (11742802_a_at) / Fold change /veh SRD5A1 (11742802_a_at) / RFU TPSAB1 /// TPSB2 (11721975_s_at) / Fold change /veh TPSAB1 /// TPSB2 (11721975_s_at) / RFU GSTM3 (11746129_a_at) / Fold change /veh GSTM3 (11746129_a_at) / RFU IL23R (11737362_x_at) / Fold change /veh IL23R (11737362_x_at) / RFU TMEM51 (11727254_a_at) / Fold change /veh TMEM51 (11727254_a_at) / RFU PIWIL2 (11732686_x_at) / Fold change /veh PIWIL2 (11732686_x_at) / RFU ORM1 (11744905_x_at) / Fold change /veh ORM1 (11744905_x_at) / RFU CCDC152 (11743942_at) / Fold change /veh CCDC152 (11743942_at) / RFU ECM1 (11717891_a_at) / Fold change /veh ECM1 (11717891_a_at) / RFU IL23R (11748794_a_at) / Fold change /veh IL23R (11748794_a_at) / RFU TNFAIP8L3 (11732012_x_at) / Fold change /veh TNFAIP8L3 (11732012_x_at) / RFU MBOAT4 (11741988_at) / Fold change /veh MBOAT4 (11741988_at) / RFU 11764193_at / Fold change /veh 11764193_at / RFU TMEM53 (11763286_at) / Fold change /veh TMEM53 (11763286_at) / RFU MAGEB2 (11727129_at) / Fold change /veh MAGEB2 (11727129_at) / RFU TMEM200A (11744735_a_at) / Fold change /veh TMEM200A (11744735_a_at) / RFU CCDC152 (11751479_a_at) / Fold change /veh CCDC152 (11751479_a_at) / RFU FAM211A (11726209_a_at) / Fold change /veh FAM211A (11726209_a_at) / RFU RGS16 (11746705_a_at) / Fold change /veh RGS16 (11746705_a_at) / RFU VCAN (11755009_s_at) / Fold change /veh VCAN (11755009_s_at) / RFU RHOB (11743442_s_at) / Fold change /veh RHOB (11743442_s_at) / RFU RGS16 (11720943_a_at) / Fold change /veh RGS16 (11720943_a_at) / RFU RGS16 (11720944_at) / Fold change /veh RGS16 (11720944_at) / RFU, VPS4B / Fold change vs veh, VPS4B / RFU, CREB1 / Fold change vs veh, CREB1 / RFU, DNAJC13 / Fold change vs veh, DNAJC13 / RFU, GNAQ / Fold change vs veh, GNAQ / RFU, CDK5R1 / Fold change vs veh, CDK5R1 / RFU, ZRANB3 / Fold change vs veh, ZRANB3 / RFU, CUL4A / Fold change vs veh, CUL4A / RFU, CCNY / Fold change vs veh, CCNY / RFU, UFL1 / Fold change vs veh, UFL1 / RFU, COG3 / Fold change vs veh, COG3 / RFU, DIAPH2 / Fold change vs veh, DIAPH2 / RFU, SKA2 / Fold change vs veh, SKA2 / RFU, AFF3 / Fold change vs veh, AFF3 / RFU, LMF1 / Fold change vs veh, LMF1 / RFU, IPO11 / Fold change vs veh, IPO11 / RFU, DFFB / Fold change vs veh, DFFB / RFU, FOXP1 / Fold change vs veh, FOXP1 / RFU, CARD8 / Fold change vs veh, CARD8 / RFU, STRN3 / Fold change vs veh, STRN3 / RFU, ADK / Fold change vs veh, ADK / RFU, RASSF2 / Fold change vs veh, RASSF2 / RFU, WIPF1 / Fold change vs veh, WIPF1 / RFU, LARP1B / Fold change vs veh, LARP1B / RFU, RASA1 / Fold change vs veh, RASA1 / RFU, RB1 / Fold change vs veh, RB1 / RFU, PPFIA1 / Fold change vs veh, PPFIA1 / RFU, MAT2A / Fold change vs veh, MAT2A / RFU, CCT5 / Fold change vs veh, CCT5 / RFU, WDR92 / Fold change vs veh, WDR92 / RFU, CUX1 / Fold change vs veh, CUX1 / RFU, TTC7A / Fold change vs veh, TTC7A / RFU, TMEM135 / Fold change vs veh, TMEM135 / RFU, DEPTOR / Fold change vs veh, DEPTOR / RFU, CPM / Fold change vs veh, CPM / RFU, DNAJB6 / Fold change vs veh, DNAJB6 / RFU, CACNA2D3 / Fold change vs veh, CACNA2D3 / RFU, DTX4 / Fold change vs veh, DTX4 / RFU, TFCP2 / Fold change vs veh, TFCP2 / RFU, GMCL1 /// GMCL1P1 / Fold change vs veh, GMCL1 /// GMCL1P1 / RFU, AEBP2 / Fold change vs veh, AEBP2 / RFU, SNHG1 /// SNORD22 /// SNORD25 /// SNORD26 /// SNORD27 /// SNORD28 /// SNORD29 /// SNORD31 / Fold change vs veh, SNHG1 /// SNORD22 /// SNORD25 /// SNORD26 /// SNORD27 /// SNORD28 /// SNORD29 /// SNORD31 / Fold change (Aza/veh), C12orf56 (ProbeSet 11735607_a_at) / Fold change (ACY-1035/veh), C12orf56 (ProbeSet 11735607_a_at) / Fold change (Aza/veh), FGFR1OP (ProbeSet 11751329_s_at) / Fold change (ACY-1035/veh), FGFR1OP (ProbeSet 11751329_s_at) / Fold change (Aza/veh), VPS36 (ProbeSet 11739960_a_at) / Fold change (ACY-1035/veh), VPS36 (ProbeSet 11739960_a_at) / RFU SYPL1 (11715823_x_at) / Fold change /veh SYPL1 (11715823_x_at) / RFU IGFBP7 (11715501_s_at) / Fold change /veh IGFBP7 (11715501_s_at) / RFU REEP3 (11722064_at) / Fold change /veh REEP3 (11722064_at) / RFU IGLL1 (11728026_x_at) / Fold change /veh IGLL1 (11728026_x_at): dose or concentration left out as unconfirmed. As to conditions: MV-4-11 cells, 48 hours.

`Nc1ccc(-c2cccs2)cc1NC(=O)c1ccc2c(c1)cc(C1CC1)n2CCN1CCOCC1` [ACY-1035]: the “Fold change /veh RASL12 (11751679_a_at)” value amounted to 1.18.
